According to patent US20260337156A1, “SOLUBILIZING COMPOUNDS” (Vivesto AB, priority 2022, published 2026):

Assay: particle size and polydispersity index of drug micelles over time (ZetaSizer)
Assay type: physicochemical
Conditions: for change of particle size and polydispersity index over time: 0-24 h
Procedure: Micellar size was measured using a ZetaSizer from Malvern Panalytical.
(§1) A stock solution of docetaxel in methanol was mixed with a stock solution of compound 1 in a round bottom flask. The mixture was evaporated to dryness in a rotary evaporator. Final drying was performed in a desiccator to remove residual solvent. Hydration of the dried film was performed by adding water for injection (1.0 mL) to a concentration of 1 mg/mL of docetaxel. The resulting solution was filtered through a 0.22 μm sterile filter and further diluted with 0.9% sodium chloride solution to 0.5 mg/mL of docetaxel. […]
(§2) A stock solution of cyclosporin in methanol was mixed with a stock solution of compound 1 in a round bottom flask. The mixture was evaporated to dryness in a rotary evaporator. Final drying was performed in a desiccator to remove residual solvent. Hydration of the dried film was performed by adding water for injection (1.0 mL) to a concentration of 1 mg/mL of cyclosporin. The resulting solution was filtered through a 0.22 μm sterile filter and further diluted with 0.9% sodium chloride solution to 0.5 mg/mL of cyclosporin. The final weight ratio of cyclosporin to micelle forming agent was 1:3.
(§3) A stock solution of docetaxel in methanol was mixed with a stock solution of compound 3 in a round bottom flask. The mixture was evaporated to dryness in a rotary evaporator. Final drying was performed in a desiccator to remove residual solvent. Hydration of the dried film was performed by adding water for injection (1.0 mL) to a concentration of 1 mg/mL of docetaxel. The resulting solution was filtered through a 0.22 μm sterile filter and further diluted with 0.9% sodium chloride solution to 0.5 mg/mL of Docetaxel. The final weight ratio of docetaxel to micelle forming agent was 1:3.
as §2, with “compound 3” for “compound 1”
as §1, with “compound 4” for “compound 1”
as §3, with “compound 5” for “compound 3”, “of docetaxel.” for “of Docetaxel.”
A stock solution of cabazitaxel in methanol was mixed with a stock solution of compound 5 in a round bottom flask. The mixture was evaporated to dryness in a rotary evaporator. Final drying was performed in a desiccator to remove residual solvent. Hydration of the dried film was performed by adding water for injection (1.0 mL) to a concentration of 1 mg/mL of cabazitaxel. […]

[1] = cabazitaxel:compound 1:3, cabazitaxel 0.5 mg/mL, time 0 h
[2] = cabazitaxel:compound 1:3, cabazitaxel 0.5 mg/mL, time 1 h
[3] = cabazitaxel:compound 1:3, cabazitaxel 0.5 mg/mL, time 2 h
[4] = cabazitaxel:compound 1:3, cabazitaxel 0.5 mg/mL, time 4 h
[5] = cabazitaxel:compound 1:3, cabazitaxel 0.5 mg/mL, time 6 h
[6] = cabazitaxel:compound 1:3, cabazitaxel 0.5 mg/mL, time 24 h
[7] = docetaxel:compound 1:3, docetaxel 0.5 mg/mL
[8] = docetaxel:compound 1:3, docetaxel 0.5 mg/mL, time 0 h
[9] = docetaxel:compound 1:3, docetaxel 0.5 mg/mL, time 1 h
[10] = docetaxel:compound 1:3, docetaxel 0.5 mg/mL, time 2 h
[11] = docetaxel:compound 1:3, docetaxel 0.5 mg/mL, time 4 h
[12] = docetaxel:compound 1:3, docetaxel 0.5 mg/mL, time 6 h
[13] = docetaxel:compound 1:3, docetaxel 0.5 mg/mL, time 24 h
[14] = docetaxel:compound 1:5, docetaxel 0.5 mg/mL, time 0 h
[15] = docetaxel:compound 1:5, docetaxel 0.5 mg/mL, time 1 h
[16] = docetaxel:compound 1:5, docetaxel 0.5 mg/mL, time 2 h
[17] = docetaxel:compound 1:5, docetaxel 0.5 mg/mL, time 4 h
[18] = docetaxel:compound 1:5, docetaxel 0.5 mg/mL, time 6 h
[19] = docetaxel:compound 1:5, docetaxel 0.5 mg/mL, time 24 h

Compound	change of particle size and polydispersity index over time [7]	Particle size [8] [nm]	Polydispersity index [8]	Particle size [9] [nm]	Polydispersity index [9]	Particle size [10] [nm]	Polydispersity index [10]	Particle size [11] [nm]	Polydispersity index [11]	Particle size [12] [nm]	Polydispersity index [12]	Particle size [13] [nm]	Polydispersity index [13]	further results
COc1cc(C)c(/C=C/C(C)=C/C=C/C(C)=C/C(=O)N(CCS(=O)(=O)[O-])CC(N)=O)c(C)c1C.[Na+] [Compound 5]	An increase in the particle size and very small variations of the polydispersity index over time were noted	59.40	0.17	66.24	0.16	75.40	0.14	82.19	0.13	87.95	0.13	105.7	0.14	change of particle size and polydispersity index over time (cabazitaxel:compound 1:3, cabazitaxel 0.5 mg/mL): Small variations in the particle size and the polydispersity index over time were noted; Particle size [1]: 93.83 nm; Polydispersity index [1]: 0.19; Particle size [2]: 98.08 nm; Polydispersity index [2]: 0.20; Particle size [3]: 102.2 nm; Polydispersity index [3]: 0.21; Particle size [4]: 106.6 nm; Polydispersity index [4]: 0.20; Particle size [5]: 108.8 nm; Polydispersity index [5]: 0.21; Particle size [6]: 83.42 nm; Polydispersity index [6]: 0.39
COc1cc(C)c(/C=C/C(C)=C/C=C/C(C)=C/C(=O)N2CCN(c3ccc(S(=O)(=O)[O-])cc3)CC2)c(C)c1C.[Na+] [Compound 6]	Small variations in the particle size and the polydispersity index over time were noted	61.37	0.22	61.27	0.28	64.21	0.28	67.34	0.28	69.84	0.28	66.18	0.38	–
COc1cc(C)c(/C=C/C(C)=C/C=C/C(C)=C/C(=O)N(C)[C@H]2CC[C@H](CS(=O)(=O)[O-])CC2)c(C)c1C.[Na+] [Compound 7]	Small variations in the particle size and the polydispersity index over time were noted	100.8	0.23	97.60	0.24	97.60	0.24	96.90	0.25	99.12	0.25	96.76	0.26	–
COc1cc(C)c(/C=C/C(C)=C/C=C/C(C)=C/C(=O)N2CCC(CCS(=O)(=O)[O-])CC2)c(C)c1C.[Na+] [Compound 8]	Increase in the particle size and small variations the polydispersity index over time were noted	55.38	0.20	70.34	0.15	75.90	0.13	83.10	0.11	87.94	0.12	105.0	0.16	–
COc1cc(C)c(/C=C/C(C)=C/C=C/C(C)=C/C(=O)N2CCN(C(=O)c3ccc(S(=O)(=O)[O-])cc3)CC2)c(C)c1C.[K+] [Compound 9]	Increase in the particle size and small variations the polydispersity index over time were noted	89.91	0.20	97.93	0.20	103.8	0.20	113.0	0.17	118.6	0.17	122.0	0.22	–
COc1cc(C)c(/C=C/C(C)=C/C=C/C(C)=C/C(=O)N(CCO)Cc2ccc(N)cc2S(=O)(=O)[O-])c(C)c1C.[Na+] [Compound 10]	–	–	–	–	–	–	–	–	–	–	–	–	–	change of particle size and polydispersity index over time (docetaxel:compound 1:5, docetaxel 0.5 mg/mL): Increase in the particle size and minor decrease the polydispersity index over time were noted; Particle size [14]: 52.29 nm; Polydispersity index [14]: 0.16; Particle size [15]: 62.51 nm; Polydispersity index [15]: 0.13; Particle size [16]: 70.07 nm; Polydispersity index [16]: 0.12; Particle size [17]: 78.98 nm; Polydispersity index [17]: 0.12; Particle size [18]: 85.10 nm; Polydispersity index [18]: 0.10; Particle size [19]: 107.4 nm; Polydispersity index [19]: 0.10
